Experimental data from PMC11984407, “A natural small molecule isoginkgetin alleviates hypercholesterolemia and atherosclerosis by targeting ACLY” (Theranostics, 2025).

Key:
ACLY = biological target: T1, ACLY (Mesocricetus auratus, UniProt A0A1U7RF50); experiment: ACLY activity in vivo, hamster liver extracts (MDH-coupled method)
T1 construct: from tissue; host or cells: liver of hamsters and of Ldlr-/- hamsters dosed with ISOGK
T1 sequence (A0A1U7RF50 1-1101): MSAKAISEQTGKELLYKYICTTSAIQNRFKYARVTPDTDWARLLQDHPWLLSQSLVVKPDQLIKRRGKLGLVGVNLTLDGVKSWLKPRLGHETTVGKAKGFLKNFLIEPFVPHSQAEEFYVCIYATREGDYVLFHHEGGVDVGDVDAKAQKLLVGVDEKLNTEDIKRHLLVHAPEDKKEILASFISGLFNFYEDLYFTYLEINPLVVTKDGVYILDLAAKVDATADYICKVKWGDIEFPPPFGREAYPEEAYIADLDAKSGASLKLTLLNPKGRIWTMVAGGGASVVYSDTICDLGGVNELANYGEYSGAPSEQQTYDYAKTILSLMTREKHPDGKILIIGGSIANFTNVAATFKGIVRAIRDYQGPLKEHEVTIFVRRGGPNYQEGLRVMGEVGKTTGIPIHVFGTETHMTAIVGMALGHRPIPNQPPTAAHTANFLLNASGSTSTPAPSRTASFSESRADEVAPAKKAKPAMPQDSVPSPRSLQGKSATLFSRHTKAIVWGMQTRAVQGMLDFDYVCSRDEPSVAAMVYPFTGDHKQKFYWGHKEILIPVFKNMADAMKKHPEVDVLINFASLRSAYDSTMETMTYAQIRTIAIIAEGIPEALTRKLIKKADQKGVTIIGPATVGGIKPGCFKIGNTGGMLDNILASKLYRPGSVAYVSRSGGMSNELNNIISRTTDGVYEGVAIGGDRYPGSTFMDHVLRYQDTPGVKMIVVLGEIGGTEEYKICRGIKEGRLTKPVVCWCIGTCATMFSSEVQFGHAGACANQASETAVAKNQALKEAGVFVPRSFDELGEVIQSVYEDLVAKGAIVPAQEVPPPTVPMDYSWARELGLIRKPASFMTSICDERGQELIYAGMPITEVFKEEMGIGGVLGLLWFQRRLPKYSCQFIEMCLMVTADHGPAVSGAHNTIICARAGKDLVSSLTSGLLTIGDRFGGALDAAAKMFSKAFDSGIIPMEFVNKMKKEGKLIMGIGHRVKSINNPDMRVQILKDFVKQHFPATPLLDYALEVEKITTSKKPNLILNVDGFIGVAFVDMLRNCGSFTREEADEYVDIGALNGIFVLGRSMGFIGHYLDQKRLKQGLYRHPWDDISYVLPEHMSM
Method: The activity of the ACLY enzyme was assayed utilizing malate dehydrogenase (MDH)-coupled method kits (BC4240, Solarbio, Beijing, China). In summary, liver extracts were incubated in a reaction buffer comprising 20 mM citrate, 10 mM MgCl₂, 10 mM DTT, 0.5 U/ml of malic dehydrogenase, 0.33 mM CoASH, and 0.14 mM NADH, both in the presence and absence of 5 mM ATP. The quantity of oxaloacetate produced by ACLY catalysis was determined by measuring the alteration in absorbance at 340 nm, which corresponds to the depletion of NADH during the MDH-catalyzed reaction. After accounting for background variations in absorbance in the absence of ATP, the relative ACL activities were computed by normalizing the data to the weight of the liver tissue.

liver gene expression = experiment: RNA sequencing of Apoe-/- mouse liver; format: in vivo; settings: heat map
Description: Total RNA was extracted, and cDNA libraries were generated to investigate differences in gene expression. The Illumina sequencing platform was employed for single-end sequencing of the libraries. HISAT2 software (version 2.0.5) was utilized to align the reads to the mouse reference genome in Ensembl. StringTie (version 1.3.3b) was employed to compute raw counts of genes. DESeq2 (version 1.20.0) software was used to normalize the count matrix. Gene sets were established based on each KEGG pathway term and the associated genes, with GSEA conducted using the Java GSEA platform (version 3.0). This analysis utilized the 'Signal2Noise' metric for ranking and adopted a permutation type specific to 'gene sets'. Gene sets displaying FDR values below 0.25 were deemed to hold statistical significance. The expression patterns of pivotal genes within the pathways enriched by GSEA were visually represented through heatmaps, generated by employing the "pheatmap" package within the R programming environment. The relevant data can be accessed via the Gene Expression Omnibus database, using the following accession number: GSE261858.

COc1ccc(-c2cc(=O)c3c(O)cc(O)c(-c4cc(-c5cc(=O)c6c(O)cc(O)cc6o5)ccc4OC)c3o2)cc1 [ISOGK, Isoginkgetin]
ACLY enzyme activity in liver tissue (ACLY; Ldlr-/- hamsters): significantly inhibits ACLY activity
ACLY enzyme activity in liver tissue (ACLY; high cholesterol diet hamsters, 4 weeks): significantly inhibits ACLY activity
expression of fatty acid and cholesterol biosynthesis genes Srebf1, Fasn, Acaca, Cyp51 (liver gene expression): significantly downregulated
